Reference: US12697366B2, “Thermogenic compositions and methods” (Ohio State Innovation Foundation, priority 2016, dated 2026)

Tests used:
3T3-L1 preadipocytes = assay: FD-glucose uptake in 3T3-L1 preadipocytes; format: cell-based, mouse; conditions: for glucose uptake compared to non-stimulated 3T3-L1 preadipocytes: 30 mins, insulin 10 μg/ml, EREG 50 ng/ml, forskolin 4 μg/ml
Protocol: Non-differentiated, 90% confluent 3T3-L1 cells were starved with glucose-deprived medium for 40 min. Then cells were treated in the presence and absence of different concentrations of nanoscaffold #2 and bovine insulin (200 μg/mL), all of reagents dissolved in the same glucose-deprived medium but containing fluorescent-D (FD)-glucose for 80 min. Thereafter, the FD glucose uptake was measured according to manufacturer's instructions (Cayman Chemical, USA, cat #600471). […] Non-differentiated, 90% confluent 3T3-L1 cells treated in the presence and absence of different concentrations of nanoscaffold #2 and bovine insulin (10 μg/mL) or mouse epiregulin (EREG, 0.05 μg/mL) and incubated for 24 h. Then cells were starved with glucose-deprived medium for 40 min and, then incubated with fluorescent-D (FD)-glucose for 80 min. Thereafter, the FD glucose uptake was measured according to manufacturer's instructions (Cayman Chemical, USA, cat #600471). Data are shown as percent of uptake in the presence of insulin (100%).
Non-differentiated, 90% confluent 3T3-L1 cells treated in the presence of bovine insulin (10 μg/mL), mouse epiregulin (EREG, 0.05 μg/mL), or their combinations and incubated for 24 h. Then cells were starved with glucose-deprived medium for 40 min and, then incubated with fluorescent-D (FD)-glucose for 80 min. Thereafter, the FD glucose uptake was measured according to manufacturer's instructions (Cayman Chemical, USA, cat #600471).
Non-differentiated, 90% confluent 3T3-L1 cells were starved with glucose-deprived medium for 50 min. Then cells were treated in the presence and absence of different concentrations of mouse recombinant IGFBP4 with and without nanoscaffold #2 and human insulin (10 μg/mL). All of reagents were dissolved in the same glucose-deprived medium but containing fluorescent-D (FD)-glucose for 90 min. Thereafter, the FD glucose uptake was measured according to manufacturer's instructions (Cayman Chemical, USA, cat #600471).
Glucose uptake assay was performed using glucose uptake cell-based assay kit (Cayman Chemical, Ann Arbor, MI). 3T3-L1 or human preadipocytes were cultured at a density of 5×10^4 per well into a 96-well plate (n=7) in high glucose media and grown overnight. Old cell culture medium was removed the next day and washed with PBS to remove residual glucose. Supplied 2-deoxy-2-[(7-nitro-2,1,3-benzoxadiazol-4-yl)amino]-D-glucose) (2-NBDG) was diluted to 150 μg/mL in DMEM medium without glucose, phenol red, L-glutamine, sodium pyruvate, and HEPES (Life technologies, Grand Island, New York). 100 μL of 2-NBDG glucose free medium with or without recombinant EREG and other treatments was added to the plated cells. After incubating at 37° C. for 30 minutes, cells were washed gently two times with 200 μL of glucose assay buffer. 100 μL of the assay buffer was added to each well and measured for fluorescence at an excitation/emission of 485/535 nm.
Fluorescence glucose uptake (FD-glucose assay) was performed as described PMID: 32065973, using insulin, 1.7 μM and different AACs at concentration 0.1 μM.
FD-glucose uptake in mouse 3T3-L1 preadipocytes (n=8 per treatment) treated with vehicle (Veh; PBS, open bar) or hINS (1.7 μM), mouse leptin (mLep; 12.5 nM, hatched bar), or AAC2 (0.1 μM black bar) in the presence and absence of GLUT1 inhibitor (BAY-876; 10 nM in DMSO). Cells were pre-treated with or without BAY-876 for 40 min and then FD glucose and treatment reagents were added for additional 80 min of incubation. Data (%) was normalized to FD-glucose uptake in control (Veh) 3T3-L1 cells without inhibitor (100%). Student's independent t-test.

GLUT4 = assay: GLUT4-GFP translocation in transfected NIH-3T3 cells (confocal microscopy); format: cell-based; conditions: insulin 10 μg/mL, nanoscaffold 10 μM
From the text: FIGS. 30A to 30D show translocation of GLUT4 (the major glucose transporter of adipocytes). Non-differentiated NIH-3[…][…]-GFP plasmid ([…] #52872) on Petri-35 dishes with coverslip ([…], cat #[…]-1.5-14-C, USA). […] FIG. 30A: GLUT4 (white vesicles) in cells (arrow) treated with vehicle are mainly in the cytosol. […] All images were taken at 60× magnification.

[1] = tested on: iAb (omental) fat explants; assay: LEP release from iAb (omental) fat explants of an obese patient (ELISA); format: cell-based, human; conditions: different EREG concentrations, 2 h
Protocol: FIGS. 14A to 14N show EREG induces expression of thermogenic and PPARα-target genes, suppresses inflammatory genes, and stimulates leptin secretion. FIGS. 14A to 14H and 14L: Markers for thermogenesis, adipogenesis, and inflammatory genes were analyzed using homogenates from whole iAb fat pads isolated from Veh- (white bars) and EREG-treated (black bars) DIO mice (Study 3). Gene expression was quantified using a customized NanoString panel. Data represent mean±SD, n.s.,—non-significant. FIG. 14I: LEP was measured in plasma in the same mice by ELISA. Data (mean±SD) are shown as percent to control (Veh, 100%) and is indicated as a dashed line. FIG. 14J: LEP release after stimulation with different concentrations of recombinant human EREGs was measured in explants of iAb (omental) tissue obtained from an obese insulin resistant patient. FIG. 14K: LEP release after stimulation of explants from same donor with and without EREG (50 ng/mL) in the presence and absence of insulin (Ins, 10 μg/mL), MAPK-I, EGFR-I, PI3K-I. Inhibitors concentrations were described in FIG. 1. FIG. 14M: LEP release after stimulation of iAb fat explants (2 h) from WT mice with different concentrations of recombinant mouse EREG. Experiment was repeated in three different WT mice. Data (mean±SD) are shown as percent to control (Veh, 100%). FIG. 14N: LEP release following stimulation of iAb fat explants (2 h) from WT mice with inhibitors of EGFR (10 μM) and MAPK (10 μM) in the presence or absence of EREG (50 ng/ml). Data (mean±SD) are shown as percent to control (Veh, 100%).
Abdominal fat tissue obtained from an obese patient was excised into 35 mg sections for stimulation with EREG. Explants were stimulated with EREG in DMEM containing 1% FBS for 2 h. Media was collected after 2 h, lyophilized and reconstituted in 120 μL deionized water for leptin detection using ELISA kit (Alpco, Salem, NH).

## insulin: insulin (bovine or human)
3T3-L1 preadipocytes
  glucose uptake compared to non-stimulated 3T3-L1 preadipocytes: 174%
3T3-L1 preadipocytes; hINS 1.7 μM, AAC2 0.1 μM, 80 min, FIG. 42A
  glucose uptake in preadipocytes: increase
GLUT4
  GLUT4 translocation: translocated from cytosol to membrane

## EREG: Epiregulin, member of the epidermal growth factor family; recombinant mouse or human protein
3T3-L1 preadipocytes
  glucose uptake compared to non-stimulated 3T3-L1 preadipocytes: 187%
3T3-L1 preadipocytes; different EREG concentrations
  glucose uptake, dose dependence: dose-dependent fashion
[1]
  release of LEP from iAb fat explants: dose dependent release
